# Test results reported in patent US9677109B2, “Rapid determination of microbial growth and antimicrobial susceptibility” (priority 2013, dated 2017).
# Columns and labels:
# Format in all cases: cell-based
# [1] = test system: S. aureus (STAU); assay: MADM (BACcel) growth analysis sensitivity, surveillance mini-BAL; conditions: specimen 008-D7, BACcel ID STAU, 1.11 × 10^6 CFU/ml
# Description: (§1) Adult MICU patients with identified surrogate were included within 72 hours of intubation and if anticipated to require MV for >48 h. Moribund state or pregnancy were exclusions. Surveillance mini-BAL (Combicath, Plastimed) was performed on Day 1, 3, 5, 7 and 10 of MV. Samples were split and processed for both a) routine respiratory quantitative microbiological culture and sensitivity assays (>48 h result availability) and b) rapid (<8 h) flowcell/surface-capture assays using the MADM system. Viable microorganisms were identified using growth analysis enhanced by a focused VAP antibody panel (S. aureus, P. aeruginosa, A. baumannii). Untypable organisms were also reported. Sensitivity was assessed using growth analysis. Attending physicians were blinded to MADM system results.
# (§2) BAL sample were prepared, removing debris and separating microorganisms from other sample material. Sample microorganisms were introduced into a multichannel fluidic cassette as described elsewhere herein. Bacteria were concentrated and retained on the lower surface of all flowcells using low-voltage electrical field (5 min). Antibody labeling of bacteria in flowcells was used to aid identification.
# (§3) The automated digital microscopy system was used to perform darkfield imaging of 10 fields of view every 10 minutes for 180 minutes in each flowcell channel. Initial epifluorescence imaging was also performed for antibody detection. […] Identification consisted of probability scores based on microorganism morphology and growth rates. Antibody labeling identification data was also incorporated. Observed microorganisms were then classified as STAU, PSAE, or non-target. Antibiotic responses were used to aid identification when appropriate. Quantitation was performed by counting identified microorganism and computing original specimen CFU/mL.
# [2] = test system: S. maltophilia (Steno); assay: as above
# Description: as §1, §2, §3
# [3] = test system: Enteric; assay: as above; conditions: specimen 005-D7, BACcel ID Enteric, 1.26 × 10^5 CFU/ml
# Description: as §1, §2, §3
# [4] = test system: Staphylococcus aureus (SA); assay: MADM clone growth in antibiotic agar, simulated blood specimens; conditions: SA in 6 μg/mL FOX, FIG. 10B, three hours
# Description: The MADM system used a custom microscope and pipetting robot, plus an evaluation system, as described herein. 32-channel disposable cassettes (FIG. 4A) enabled live microorganism immobilization for microscopy and fluid exchanges for different test agents. The microscope scanned 40 image fields in each flowcell channel, each channel having organisms extracted from about 3.5 μL of prepared inoculum.
# Simulated blood specimens consisted of isolates spiked into 10 mL each of 29 aliquots of two short-fill CPD blood bank bags to make approximately 5 CFU/mL of bacterial target species, confirmed by quantitative culture. Spiked isolates included 14 Staphylococcus aureus (SA), 3 Pseudomonas aeruginosa (PA), or 12 non-target Gram-negative bacilli species. Dilution of each sample with 30 mL of modified TSB culture medium promoted growth. 20 additional control aliquots contained no spikes. 4-hour incubation at 35° C., followed with brief spin cleanup, ended with pellet resuspension into an electrokinetic buffer to make 1 mL samples for MADM system analysis. 20 μL sample aliquots were then pipetted into 14 cassette flowcells. A 5-minute low-voltage electrokinetic capture was performed to concentrate microorganisms on the lower surface of each flowcell where a capture coating immobilized the bacterial cells. […]
# [5] = test system: Staphylococcus aureus (STAU); assay: MADM resistance phenotype test, respiratory specimens
# Description: (ABCC). Concurrent quantitative culture (qCx) was performed on specimens.
# 20 μL samples of prepared specimen were pipetted into independent flowcell channels and a low-voltage electrical field was applied for 5 minutes. The electrical field concentrated bacteria onto a functional surface coating that immobilized the bacteria on the lower flowcell surface. Each flowcell channel received only one type of test reagent solution that contained a selective agent if required (only for channels used to test AB, sulbactam 32 μg/mL).
# The instrument acquired images at 10-minutes intervals for 180 minutes, using 10 fields of view in each flowcell channel through a 20× objective. Imaging used darkfield illumination. Identification variables included response to selective agents (AB with sulbactam), cell morphology, growth morphology, and growth rate.
# Identification algorithms applied to each individual immobilized bacterial cell. The system measured the amount of change in mass over time to compute growth rates. Identification consisted of computing and combining probability scores for morphology, response to selective media, and growth rates to produce a receiver operating characteristic curve (ROC) to derive classification criteria.
smiles,measurement,setting,value
"CO[C@@]1(NC(=O)Cc2cccs2)C(=O)N2C(C(=O)O)=C(COC(N)=O)CS[C@@H]21 [FOX, cefoxitin]","Phenotype, sensitivity",[1],FOX-R
same,"Phenotype, sensitivity","[2]; specimen 006-D1, BACcel ID Steno, 7.68 × 10^5 CFU/ml","growth, TZP-"
same,"Phenotype, sensitivity","[2]; specimen 006-D3, BACcel ID Steno, 1.60 × 10^4 CFU/ml","growth, TZP-"
same,"Phenotype, sensitivity",[3],all growth
same,Clone growth,[4],growth indicating MRSA phenotype
same,MADM resistance phenotype,"[5]; specimen DH 425, Mini-BAL",R
same,MADM resistance phenotype,"[5]; specimen DH 427, Mini-BAL",S
same,MADM resistance phenotype,"[5]; specimen DH 439, Mini-BAL",R
same,MADM resistance phenotype,"[5]; specimen DH 440, BAL",S
same,MADM resistance phenotype,"[5]; specimen DH 457, BAL",S
same,MADM resistance phenotype,"[5]; specimen DH 485, BAL",S
same,MADM resistance phenotype,"[5]; specimen DH 509, BAL",S
same,MADM resistance phenotype,"[5]; specimen DH 514, Mini-BAL",S
same,MADM resistance phenotype,"[5]; specimen DH 543, BAL",S
same,MADM resistance phenotype,"[5]; specimen DH 550, BAL",S
same,MADM resistance phenotype,"[5]; specimen DH 556, Mini-BAL",S
same,MADM resistance phenotype,"[5]; specimen T12, ETA",R
